Biological target: T1, human Y4 stable CHO clonal cells (Homo sapiens, UniProt P50391)
T1 construct: expressed in transfected cells
Assay: NPY4 cAMP HTRF Agonist Assay
Type: cell-based
Conditions: inhibitory cAMP assay, Gi activation by Y4 agonism, forskolin and IBMX, 30 minutes at room temperature
Description: NPY4 cAMP HTRF Agonist Assay
The functionality of the compound at Y4 receptor was analyzed using an inhibitory cAMP assay (CISBIO, HTRF cAMP kit #62AM4PEC) to measure the Gi activation by Y4 agonism.
The human Y4 stable CHO clonal cells were maintained in culture medium (F-12 containing 10% Fetal Bovine Serum, […] GENETICIN®, […] Zeocin). Before the experiment, 5 μL of 1 uM Forskolin (Sigma, # F6886) and 100 uM IBMX (Sigma, # I5879) in PBS buffer were added into 384-well plates (PE, Proxi-plate) that were pre-dotted with […] compounds. The cells were removed from the flasks by Cellstripper, counted and adjusted to […] in PBS buffer, and added 5 μL/well (5000 cells/well) into the above 384-well plates. The cells were then covered and incubated for 30 minutes at room temperature. After incubation, 5 μL/well of D2-conjugate in HTRF lysis buffer was first added, followed by adding 5 μL/well of anti-cAMP Cryptate in HTRF lysis buffer. The plates were incubated for another 1 hour at room temperature and read on the EnVision Multilabel Plate Reader.
Compounds described herein were tested in the above assay.

T1 sequence (P50391 whole entry): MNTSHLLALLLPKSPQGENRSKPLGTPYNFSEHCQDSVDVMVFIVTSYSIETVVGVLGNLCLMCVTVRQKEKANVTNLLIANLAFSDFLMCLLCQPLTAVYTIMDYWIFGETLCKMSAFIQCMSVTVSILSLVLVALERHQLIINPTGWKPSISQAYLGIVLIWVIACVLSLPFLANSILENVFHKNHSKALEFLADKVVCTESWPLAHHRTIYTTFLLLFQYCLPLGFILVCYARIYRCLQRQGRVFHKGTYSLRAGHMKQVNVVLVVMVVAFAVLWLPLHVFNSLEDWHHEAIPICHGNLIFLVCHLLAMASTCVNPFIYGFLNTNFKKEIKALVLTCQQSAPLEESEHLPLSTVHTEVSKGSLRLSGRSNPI

Row | SMILES | EC50 [µM]
1 | Cc1ccccc1N1CCCC[C@H](NC(=O)[C@H](CC[C@H](Cc2ccccc2)C(=O)N[C@H]2CCS[C@H]3CC[C@@H](C(F)(F)F)CN3C2=O)Cc2ccccc2)C1=O [Example 90, (2R,5R)-2,5-Dibenzyl-N1-((S)-2-oxo-1-o-tolylazepan-3-yl)-N6-((4S,8R,10aS)-5-oxo-8-(trifluoromethyl)octahydro-2H-pyrido[2,1-b][1,3]thiazepin-4-yl)hexanediamide] | 0.27
2 | COC[C@@H]1CCC[C@@H]2SCC[C@H](NC(=O)[C@H](CC[C@H](Cc3ccccc3)C(=O)N[C@H]3CCCCN(c4ccccc4)C3=O)Cc3ccccc3)C(=O)N12 [Example 74, (2R,5R)-2,5-Dibenzyl-N1-((4S,7S,10aS)-7-(methoxymethyl)-5-oxooctahydro-2H-pyrido[2,1-b][1,3]thiazepin-4-yl)-N6-((S)-2-oxo-1-phenylazepan-3-yl)hexanediamide] | 0.47
3 | COC(=O)[C@@H]1CCC[C@@H]2SCC[C@H](NC(=O)[C@H](CC[C@H](CC3CCCCC3)C(=O)N[C@H]3CCS[C@H]4CCC[C@@H](C(=O)OC)N4C3=O)Cc3cccc(Cl)c3)C(=O)N21 [Example 43, Dimethyl (4S,7S,10aS,4′S,7′S,10a′S)-4,4′-(((2R,5R)-2-(3-chlorobenzyl)-5-(cyclohexylmethyl)-1,6-dioxo-1,6-hexanediyl)diimino)bis(5-oxooctahydro-7H-pyrido[2,1-b][1,3]thiazepine-7-carboxylate)] | 0.835
4 | COC(=O)[C@@H]1CCC[C@@H]2SCC[C@H](NC(=O)[C@H](CC[C@H](Cc3ccc(O)cc3)C(=O)N[C@H]3CCS[C@H]4CCC[C@@H](C(=O)OC)N4C3=O)Cc3ccccc3)C(=O)N21 [Example 38, Dimethyl (4S,7S,10aS,4′S,7′S,10a′S)-4,4′-(((2R,5R)-2-benzyl-5-(4-hydroxybenzyl)-1,6-dioxo-1,6-hexanediyl)diimino)bis(5-oxooctahydro-7H-pyrido[2,1-b][1,3]thiazepine-7-carboxylate)] | 0.005
5 | COC(=O)[C@@H]1CCCN2CCC[C@H](NC(=O)[C@H](CC[C@H](Cc3ccccc3)C(=O)N[C@H]3CCCN4CCC[C@@H](C(=O)OC)N4C3=O)Cc3ccccc3)C(=O)N12 [Example 18, Dimethyl (1S,9S,1′S,9′S)-9,9′-(((2R,5R)-2,5-dibenzyl-1,6-dioxo-1,6-hexanediyl)diimino)bis(10-oxooctahydro-6H-pyridazino[1,2-a][1,2]diazepine-1-carboxylate)] | 0.155
6 | COC(=O)[C@@H]1CCC[C@@H]2SCC[C@H](NC(=O)[C@H](CC[C@H](CC(C)C)C(=O)N[C@H]3CCS[C@H]4CCC[C@@H](C(=O)OC)N4C3=O)Cc3ccccc3)C(=O)N21 [Example 4] | 0.13
7 | COC(=O)[C@@H]1CCC[C@@H]2SCC[C@H](NC(=O)[C@H](CC[C@H](Cc3ccccc3)C(=O)N[C@H]3CCS[C@H]4CCC[C@@H](C(=O)OC)N4C3=O)Cc3ccccc3)C(=O)N21 [Example 1, Dimethyl (4S,7S,10aS,4′S,7′S,10a′S)-4,4′-(((2R,5R)-2,5-dibenzyl-1,6-dioxo-1,6-hexanediyl)diimino)bis(5-oxooctahydro-7H-pyrido[2,1-b][1,3]thiazepine-7-carboxylate)] | 0.017

Continued by falling EC50, values first:

Row | EC50 [µM] | SMILES
8 | 0.27 | O=C(N[C@H]1CCCCN(c2ccccc2)C1=O)[C@H](CC[C@H](Cc1ccccc1)C(=O)N[C@H]1CCS[C@H]2CCCCN2C1=O)Cc1ccccc1 [Example 59, (2R,5R)-2,5-Dibenzyl-N1-((S)-2-oxo-1-phenylazepan-3-yl)-N6-((4S,10aS)-5-oxooctahydro-2H-pyrido[2,1-b][1,3]thiazepin-4-yl)hexanediamide]
9 | 0.23 | COC(=O)[C@@H]1CCC[C@@H]2SCC[C@H](NC(=O)[C@H](CC[C@H](Cc3ccccc3)C(=O)N[C@H]3CCS[C@H]4CCCCN4C3=O)Cc3ccccc3)C(=O)N21 [Example 30, (4S,7S,10aS)-Methyl 4-((2R,5R)-2,5-dibenzyl-6-oxo-6-((4S,10aS)-5-oxooctahydro-2H-pyrido[2,1-b][1,3]thiazepin-4-ylamino)hexanamido)-5-oxooctahydro-2H-pyrido[2,1-b][1,3]thiazepine-7-carboxylate]
10 | 0.21 | CCC[C@@H](CC[C@H](Cc1cccc(F)c1)C(=O)N[C@H]1CCS[C@H]2CCC[C@@H](C(=O)OC)N2C1=O)C(=O)N[C@H]1CCS[C@H]2CCC[C@@H](C(=O)OC)N2C1=O [Example 100]
11 | 0.2 | COC(=O)[C@@H]1CCC[C@@H]2CCC[C@H](NC(=O)[C@H](CC[C@H](Cc3ccccc3)C(=O)N[C@H]3CCC[C@H]4CCC[C@@H](C(=O)OC)N4C3=O)Cc3ccccc3)C(=O)N21 [Example 5, Dimethyl (4S,7S,10aS,4′S,7′S,10a′S)-7,7′-(((2R,5R)-2,5-dibenzyl-1,6-dioxo-1,6-hexanediyl)diimino)bis(6-oxodecahydropyrido[1,2-a]azepine-4-carboxylate)]
12 | 0.06 | COC(=O)[C@@H]1CCC[C@@H]2SCC[C@H](NC(=O)[C@H](CC[C@H](Cc3ccccc3)C(=O)N[C@@H]3C(=O)N4CCC[C@@H]4SC3(C)C)Cc3ccccc3)C(=O)N21 [Example 12, (4S,7S,10aS)-Methyl 4-((2R,5R)-2,5-dibenzyl-6-((3R,8aS)-2,2-dimethyl-4-oxohexahydro-2H-pyrrolo[2,1-b][1,3]thiazin-3-ylamino)-6-oxohexanamido)-5-oxooctahydro-2H-pyrido[2,1-b][1,3]thiazepine-7-carboxylate]
13 | 0.055 | N#C[C@@H]1CCC[C@@H]2SCC[C@H](NC(=O)[C@H](CC[C@H](Cc3ccccc3)C(=O)N[C@H]3CCCCN(c4ccccc4)C3=O)Cc3ccccc3)C(=O)N12 [Example 72, (2R,5R)-2,5-Dibenzyl-N1-((4S,7S,10aS)-7-cyano-5-oxooctahydro-2H-pyrido[2,1-b][1,3]thiazepin-4-yl)-N6-((S)-2-oxo-1-phenylazepan-3-yl)hexanediamide]
14 | 0.024 | COC(=O)[C@@H]1CCC[C@@H]2SCC[C@H](NC(=O)[C@H](CC[C@H](CC#N)C(=O)N[C@H]3CCS[C@H]4CCC[C@@H](C(=O)OC)N4C3=O)Cc3ccccc3)C(=O)N21 [Example 32, Dimethyl (4S,7S,10aS,4′S,7′S,10a′S)-4,4′-(((2R,5R)-2-benzyl-5-(cyanomethyl)-1,6-dioxo-1,6-hexanediyl)diimino)bis(5-oxooctahydro-7H-pyrido[2,1-b][1,3]thiazepine-7-carboxylate)]
15 | 0.018 | COc1ccccc1N1CCCC[C@H](NC(=O)[C@H](CC[C@H](Cc2ccccc2)C(=O)N[C@H]2CCS[C@H]3CCC[C@@H](C(F)(F)F)N3C2=O)Cc2ccccc2)C1=O [Example 79, (2R,5R)-2,5-Dibenzyl-N1-((S)-1-(2-methoxyphenyl)-2-oxoazepan-3-yl)-N6-((4S,7S,10aS)-5-oxo-7-(trifluoromethyl)octahydro-2H-pyrido[2,1-b][1,3]thiazepin-4-yl)hexanediamide]
16 | 0.014 | COC(=O)[C@@H]1CCC[C@@H]2SCC[C@H](NC(=O)[C@H](CC[C@H](Cc3ccc(O)cc3)C(=O)N[C@H]3CCS[C@H]4CCC[C@@H](C(=O)OC)N4C3=O)Cc3ccc(O)cc3)C(=O)N21 [Example 9, Dimethyl (4S,7S,10aS,4′S,7′S,10a′S)-4,4′-(((2R,5R)-2,5-bis(4-hydroxybenzyl)-1,6-dioxo-1,6-hexanediyl)diimino)bis(5-oxooctahydro-7H-pyrido[2,1-b][1,3]thiazepine-7-carboxylate)]
17 | 0.007 | COc1ccccc1N1CCCC[C@H](NC(=O)[C@H](CC[C@H](Cc2ccccc2)C(=O)N[C@H]2CCS[C@H]3CCC[C@@H](C#N)N3C2=O)Cc2ccccc2)C1=O [Example 96, (2R,5R)-2,5-Dibenzyl-N1-((4S,7S,10aS)-7-cyano-5-oxooctahydro-2H-pyrido[2,1-b][1,3]thiazepin-4-yl)-N6-((S)-1-(2-methoxyphenyl)-2-oxoazepan-3-yl)hexanediamide]
